{
  "source": "patent US12441687B2",
  "about": "“Drp1-filamin complex formation inhibitors” (RDISCOVERY, LLC, priority 2019, dated 2025)",
  "key": {"[1]": {"system": "model mice of type 1/2 diabetes (STZ)", "assay": "Blood sugar level in streptozotocin model mice of type 1/2 diabetes", "format": "in vivo", "settings": "STZ 200 mg/kg mice, osmotic pump 5,000 μg/kg from 14th day, FIG. 6", "protocol": "Effects of cilnidipine on intractable disease were examined. In this Exemplary Experiment, cilnidipine was administered to model mice of type 1/2 diabetes, and the blood sugar level was measured over time. The model mice of type 1/2 diabetes employed were mice intraperitoneally administered 200 mg/kg of streptozotocin (STZ) on the 42nd day after birth. Also mouse without streptozotocin administration were prepared for comparison.\nBlood sugar levels of mice in the individual groups were measured over time after the start of experiment. On the 14th day after the start of experiment, an osmotic pump containing 5,000 μg/kg of cilnidipine or the solvent only was implanted into each mouse in each group, for prolonged administration."}, "[2]": {"system": "H9c2 cell overexpressing A1545T mutant of filamin A gene fused with mCherry tag", "assay": "Mitochondrial division promoted by overexpressed A1545T mutant of filamin A in H9c2 cells", "format": "cell-based, murine", "settings": "Exemplary Experiment 9, 1 μM, 24 hours, FIG. 9(b)", "description": "A disease called filamin cardiomyopathy has been known to involve A1539T mutation (substitution of adenine at position 1539 to thymine) on filamin-C gene. Then influence of A1545T mutant of filamin A gene, similar to A1539T mutant of filamin-C gene, on the shape of mitochondria of myocardial cell was examined.\n(§1) An expression vector of wild type filamin A gene fused with mCherry tag, or, an expression vector of A1545T mutant of filamin A gene fused with mCherry tag was transduced into H9c2 cell, which is a murine heart striated muscle cell line, and allowed to overexpress. Also a group, having an expression vector of mCherry transduced and allowed to overexpress therein, was prepared for comparison.\n(§2) The cells were cultured for 24 hours, cilnidipine or NS4-238 was added to the culture medium while adjusting the final concentration to 1 μM, and the cells were further cultured for 24 hours. Also a group having DMSO added thereto in place of the drugs was prepared for comparison.\n(§3) The cells were then stained in the same way as described in Exemplary Experiment 1 using MitoTracker Green FM (from Thermo Fischer Scientific Inc.). The cells were observed under a fluorescent microscope, and the shape of mitochondria was quantified by image analysis."}, "[3]": {"system": "myocardial cells from neonatal rat", "assay": "Aging of myocardial cell (p53 accumulation) under hypoxic-reoxygenation stimulation", "format": "cell-based", "settings": "Exemplary Experiment 10, 1 μM, hypoxic (1%) 18 hours then normoxic (21%) 18 hours, FIG. 10", "protocol": "How the cilnidipine derivatives, synthesized in Exemplary Experiment 7, can affect aging of myocardial cell was examined. Aging of myocardial cell was evaluated on the basis of accumulation of p53 protein. More specifically, each of cilnidipine, and the individual compounds namely NS4-019, NS4-021 and NS4-043, synthesized in Exemplary Experiment 7, was added to a culture medium of the myocardial cells from neonatal rat, so as to adjust the final concentration to 1 μM, and the cells were incubated for one hour. The cells were then subjected to hypoxic-reoxygenation stimulation, by cultivation under hypoxic (1%) environment for 18 hours, followed by cultivation under normoxic (21%) environment for 18 hours. The cells in each culture were then fixed with 4% paraformaldehyde, and immunostained with anti-p53 antibody and anti-α-actinin antibody. α-Actinin is a marker of myocardial cell. The cells in each culture were observed under a fluorescent microscope, and percentage of p53 accumulating cells relative to the α-actinin-positive cells was determined."}, "Drp1-filamin complex": {"biological_target": "Drp1-filamin complex (Homo sapiens, UniProt O00429+P21333)", "sequence (O00429 whole entry)": "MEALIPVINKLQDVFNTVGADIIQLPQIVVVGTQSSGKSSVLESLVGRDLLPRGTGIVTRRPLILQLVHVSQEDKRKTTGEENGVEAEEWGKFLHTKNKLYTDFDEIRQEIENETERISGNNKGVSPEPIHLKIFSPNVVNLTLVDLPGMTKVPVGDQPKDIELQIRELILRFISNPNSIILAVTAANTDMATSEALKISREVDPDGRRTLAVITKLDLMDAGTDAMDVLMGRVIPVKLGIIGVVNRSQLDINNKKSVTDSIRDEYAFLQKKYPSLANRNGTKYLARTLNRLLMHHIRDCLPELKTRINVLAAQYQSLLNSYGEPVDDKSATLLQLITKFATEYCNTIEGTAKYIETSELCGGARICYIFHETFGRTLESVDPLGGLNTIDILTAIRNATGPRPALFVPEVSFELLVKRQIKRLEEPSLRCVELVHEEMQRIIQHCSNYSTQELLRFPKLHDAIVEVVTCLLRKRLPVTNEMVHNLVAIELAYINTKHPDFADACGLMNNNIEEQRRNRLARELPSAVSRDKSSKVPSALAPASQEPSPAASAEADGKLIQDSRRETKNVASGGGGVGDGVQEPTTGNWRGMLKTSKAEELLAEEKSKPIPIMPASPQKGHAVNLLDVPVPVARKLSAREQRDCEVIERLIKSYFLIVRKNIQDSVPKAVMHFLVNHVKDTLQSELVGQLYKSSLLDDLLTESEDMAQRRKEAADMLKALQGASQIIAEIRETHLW", "sequence (P21333 whole entry)": "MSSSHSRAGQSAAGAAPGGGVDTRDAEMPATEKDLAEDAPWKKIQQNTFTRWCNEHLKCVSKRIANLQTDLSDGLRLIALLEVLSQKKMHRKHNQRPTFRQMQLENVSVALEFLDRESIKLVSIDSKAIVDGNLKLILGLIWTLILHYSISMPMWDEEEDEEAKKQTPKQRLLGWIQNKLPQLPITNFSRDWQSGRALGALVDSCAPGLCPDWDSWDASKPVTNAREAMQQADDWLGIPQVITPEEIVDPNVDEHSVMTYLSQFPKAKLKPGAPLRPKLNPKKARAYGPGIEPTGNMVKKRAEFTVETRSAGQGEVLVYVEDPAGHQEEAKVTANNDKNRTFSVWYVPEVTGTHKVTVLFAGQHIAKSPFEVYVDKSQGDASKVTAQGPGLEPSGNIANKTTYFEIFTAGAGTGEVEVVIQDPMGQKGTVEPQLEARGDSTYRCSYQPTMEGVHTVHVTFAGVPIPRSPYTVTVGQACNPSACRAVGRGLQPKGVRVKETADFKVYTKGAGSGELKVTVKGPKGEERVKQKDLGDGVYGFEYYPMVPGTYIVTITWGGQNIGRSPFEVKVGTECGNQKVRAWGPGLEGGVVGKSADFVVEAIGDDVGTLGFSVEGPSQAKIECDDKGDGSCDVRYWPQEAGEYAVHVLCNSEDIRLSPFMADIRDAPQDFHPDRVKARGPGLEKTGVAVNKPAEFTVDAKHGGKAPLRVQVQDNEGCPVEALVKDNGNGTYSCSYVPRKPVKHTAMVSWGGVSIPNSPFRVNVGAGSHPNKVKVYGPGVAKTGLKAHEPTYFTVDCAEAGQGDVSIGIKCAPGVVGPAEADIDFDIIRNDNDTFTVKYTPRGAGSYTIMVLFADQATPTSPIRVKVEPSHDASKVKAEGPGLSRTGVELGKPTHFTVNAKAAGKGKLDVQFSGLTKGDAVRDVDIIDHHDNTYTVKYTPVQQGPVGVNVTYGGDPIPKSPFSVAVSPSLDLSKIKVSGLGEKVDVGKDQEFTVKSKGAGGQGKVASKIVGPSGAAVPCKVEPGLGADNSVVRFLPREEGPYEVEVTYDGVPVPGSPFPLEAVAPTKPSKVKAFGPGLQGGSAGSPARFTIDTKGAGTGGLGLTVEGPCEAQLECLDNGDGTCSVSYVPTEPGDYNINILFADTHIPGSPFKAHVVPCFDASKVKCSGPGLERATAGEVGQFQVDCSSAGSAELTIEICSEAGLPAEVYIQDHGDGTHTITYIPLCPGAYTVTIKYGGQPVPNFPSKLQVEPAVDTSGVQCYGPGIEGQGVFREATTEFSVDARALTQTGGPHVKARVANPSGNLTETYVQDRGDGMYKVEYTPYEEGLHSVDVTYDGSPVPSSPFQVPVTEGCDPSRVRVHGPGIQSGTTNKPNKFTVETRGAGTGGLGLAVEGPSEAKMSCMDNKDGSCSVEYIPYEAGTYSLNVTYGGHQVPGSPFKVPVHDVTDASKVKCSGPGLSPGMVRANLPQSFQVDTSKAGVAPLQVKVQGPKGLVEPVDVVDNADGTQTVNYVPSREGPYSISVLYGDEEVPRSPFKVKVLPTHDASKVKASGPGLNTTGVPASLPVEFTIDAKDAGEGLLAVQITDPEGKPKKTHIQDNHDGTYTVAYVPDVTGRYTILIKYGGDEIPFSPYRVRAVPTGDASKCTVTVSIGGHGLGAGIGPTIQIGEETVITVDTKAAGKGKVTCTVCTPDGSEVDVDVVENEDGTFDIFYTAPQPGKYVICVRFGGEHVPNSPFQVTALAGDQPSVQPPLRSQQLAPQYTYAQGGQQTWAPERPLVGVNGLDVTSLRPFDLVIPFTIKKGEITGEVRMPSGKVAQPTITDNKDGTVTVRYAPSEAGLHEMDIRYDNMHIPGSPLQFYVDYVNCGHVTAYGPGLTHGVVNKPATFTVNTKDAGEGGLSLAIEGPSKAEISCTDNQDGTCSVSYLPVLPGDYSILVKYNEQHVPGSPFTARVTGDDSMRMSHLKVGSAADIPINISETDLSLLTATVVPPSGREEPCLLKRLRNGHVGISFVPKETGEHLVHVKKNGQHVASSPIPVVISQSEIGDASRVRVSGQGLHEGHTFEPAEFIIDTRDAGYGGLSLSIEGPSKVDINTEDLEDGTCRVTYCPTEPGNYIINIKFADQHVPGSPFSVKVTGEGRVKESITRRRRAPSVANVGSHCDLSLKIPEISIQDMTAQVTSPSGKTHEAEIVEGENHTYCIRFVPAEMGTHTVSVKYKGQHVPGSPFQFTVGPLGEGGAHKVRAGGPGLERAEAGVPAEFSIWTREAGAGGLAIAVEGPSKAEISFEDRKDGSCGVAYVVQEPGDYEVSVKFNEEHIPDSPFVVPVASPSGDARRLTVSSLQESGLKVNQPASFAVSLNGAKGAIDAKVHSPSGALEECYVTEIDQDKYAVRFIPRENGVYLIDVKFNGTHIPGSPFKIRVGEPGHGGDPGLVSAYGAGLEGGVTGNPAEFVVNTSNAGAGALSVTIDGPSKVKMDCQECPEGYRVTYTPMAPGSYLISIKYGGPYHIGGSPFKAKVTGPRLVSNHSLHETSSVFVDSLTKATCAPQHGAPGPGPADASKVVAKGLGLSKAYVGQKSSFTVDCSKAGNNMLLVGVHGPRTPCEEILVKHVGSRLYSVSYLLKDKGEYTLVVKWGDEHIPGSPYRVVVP", "settings": "Non Patent Literature 1; cited from earlier work"}, "[4]": {"system": "SOD1-G93A mice (ALS model)", "assay": "Survival of ALS model mice (SOD1-G93A) with cilnidipine administration", "format": "in vivo", "settings": "osmotic pump 5,000 μg/kg intraperitoneally implanted after onset of ALS, 28 days, FIG. 4(b)", "protocol": "Effects of cilnidipine on intractable disease were examined. In this Exemplary Experiment, cilnidipine was administered to model mice of amyotrophic lateral sclerosis (ALS), and survival rate was examined. The ALS model mice employed were SOD1-G93A mice.\nFIG. 4(a) is a drawing that illustrates an experiment schedule. An osmotic pump containing 5,000 μg/kg of cilnidipine was intraperitoneally implanted into each model mouse after onset of ALS, the drug was administered continuously over 28 days, and the survival rate was measured."}, "calcium channel": {"system": "calcium channel", "assay": "Calcium channel blocking: intracellular calcium increase after potassium chloride stimulation in Neuro-2a cells (Fura 2-AM)", "format": "cell-based, murine", "protocol": "Effect of blocking the calcium channel by the cilnidipine derivative, synthesized in Exemplary Experiment 7, was examined. More specifically, first, Neuro-2a cells which belong to a cell line of murine neuroblastoma were cultured in serum-free culture media, and Fura 2-AM (from Dojindo Laboratories) as a calcium ion probe was added to the culture media, so as to transduce it into the cells.\nThe culture media were then replaced with HEPES buffered nutrient solution (pH7.4), and each of cilnidipine, and the individual compounds namely NS4-019, NS4-021, NS4-043, NS4-238, and NS4-700, synthesized in Exemplary Experiment 7, was added to the culture media so as to adjust the final concentrations to 0, 1, 10, 100, and 1,000 nM, and the culture media were incubated for 30 minutes.\nDepolarizing stimulation was then given by adding potassium chloride solution (to a final concentration of 60 mM), and inflow of calcium ions into the cells was observed under a fluorescent microscope.\nFIG. 12 is a graph that illustrates increase of intracellular calcium ion concentration after potassium chloride stimulation. In FIG. 12, “CIL” represents results obtained from the cells having cilnidipine added thereto, “NS4-238” represents results obtained from the cells having NS4-238 added thereto, and “**” represents presence of significant difference at p<0.01. […]"}, "[5]": {"system": "myocardial cells from the neonatal rat", "assay": "Evaluation of degree of mitochondrial division under hypoxia (MitoTracker Green FM, image analysis)", "format": "cell-based", "protocol": "A system for quantitatively evaluating degree of intracellular mitochondrial division was built. More specifically, myocardial cells obtained from a neonatal rat were cultured under normoxia (20%) or under hypoxia (1%) for 16 hours. The cells were then stained with a fluorescent dye (MitoTracker Green FM, from Thermo Fisher Scientific Inc.) that selectively stains mitochondria. The cells were observed under a fluorescent microscope, and the shape of mitochondria was quantified by image analysis.\nFIG. 2(c) is a graph that illustrates length of mitochondria from the myocardial cells of a neonatal rat cultured under normoxia or hypoxia. In FIG. 2(c), “Normoxia” represents results obtained from culture under the normal oxygen concentration, and “Hypoxia” represents results obtained from culture under the low oxygen concentration. […]\nEach of the aforementioned compounds was added to a culture medium of the myocardial cells from the neonatal rat, so as to adjust the final concentration to 1 μM, the cells were incubated for one hour, and further cultured under hypoxic environment for 16 hours. The cells were then stained in the same way as described in Exemplary Experiment 1 using MitoTracker Green FM (from Thermo Fischer Scientific Inc.), observed under a fluorescent microscope, and the shape of mitochondria was quantified. […]"}, "[6]": {"system": "H9c2 cell overexpressing wild type filamin A gene fused with mCherry tag", "assay": "Mitochondrial division promoted by overexpressed wild type filamin A in H9c2 cells", "format": "cell-based, murine", "settings": "Exemplary Experiment 9, 1 μM, 24 hours, FIG. 9(b)", "protocol": "as §1, §2, §3"}, "[7]": {"system": "hypertensive and hyperglycemic patients", "assay": "Retrospective analysis of blood HbA1c in hypertensive and hyperglycemic patients", "format": "in vivo, human", "settings": "patients administered cilnidipine compared with patients administered amlodipine, FIG. 7", "protocol": "Effects of cilnidipine on intractable disease were examined. The results shown in this Exemplary Experiment were obtained from retrospective analyses on patients in Kyushu University Hospital. In this Exemplary Experiment, percentages of blood HbA1c in hypertensive and hyperglycemic patients administered amlodipine, and in hypertensive and hyperglycemic patients administered cilnidipine, were evaluated."}, "[8]": {"system": "model mice of inflammatory bowel disease (DSS)", "assay": "Survival of DSS-induced inflammatory bowel disease model mice", "format": "in vivo", "settings": "osmotic pump 25,000 μg/kg, 17 days, 3% DSS, FIG. 5(b)", "protocol": "Effects of cilnidipine on intractable disease were examined. In this Exemplary Experiment, cilnidipine was administered to model mice of inflammatory bowel disease, and survival rate was examined. The model mice of inflammatory bowel disease employed were mice on which inflammatory bowel disease is inducible by administrating dextran sulfate (DSS).\nFIG. 5(a) is a drawing that illustrates an experiment schedule. From three days before the administrating DSS started, an osmotic pump containing 25,000 μg/kg of cilnidipine was intraperitoneally implanted into each mouse, the drug was administered continuously over 17 days, and the survival rate was measured.\nFrom the first day (Day 0) the cilnidipine administration started, the mice were fed tap water containing 3% DSS as a drinking water for seven days. Over a period between Day 7 after the start of cilnidipine administration to Day 14, the drinking water was reverted to ordinary tap water. Also a control group was prepared, in which the mice were fed a solvent only in place of cilnidipine."}},
  "data": [
    {"smiles": "COCCOC(=O)C1=C(C)NC(C)=C(C(=O)OC/C=C/c2ccccc2)C1c1cccc([N+](=O)[O-])c1", "note": "(stereo not drawn) [cilnidipine]", "values": [
      {"measurement": "blood sugar level", "setting": "[1]", "value": "blood sugar level getting closer to the normal level"},
      {"measurement": "average length of mitochondrial fragments (suppression of mitochondrial division)", "setting": "[2]", "value": "could not suppress mitochondrial division"},
      {"measurement": "percentage of p53 accumulating cells relative to α-actinin-positive cells (aging of myocardial cell)", "setting": "[3]", "value": "suppressive effects over aging of myocardial cell"},
      {"measurement": "inhibition of formation of the Drp1-filamin complex", "setting": "Drp1-filamin complex", "value": "inhibits formation of the Drp1-filamin complex"},
      {"measurement": "survival rate", "setting": "[4]", "value": "significant elongation of lifetime"},
      {"measurement": "blocking effect on the calcium channel (ΔRatio, increase of intracellular calcium ion concentration)", "setting": "calcium channel; Exemplary Experiment 12, 0, 1, 10, 100, and 1,000 nM, 30 minutes, 60 mM potassium chloride, FIG. 12", "value": "showed blocking effects exerted on the calcium channel"},
      {"measurement": "blocking effect on the calcium channel (ΔRatio)", "setting": "calcium channel; Exemplary Experiment 15, at 1000 nM, FIG. 15", "value": "showed blocking effects on the calcium channel"},
      {"measurement": "percentage of cells having vesicular mitochondria (suppression of mitochondrial division)", "setting": "[5]; Exemplary Experiment 2, 1 μM, hypoxic environment 16 hours, FIG. 3", "value": "significantly suppress mitochondrial division"},
      {"measurement": "percentage of cells having vesicular mitochondria (suppression of mitochondrial division)", "setting": "[5]; Exemplary Experiment 11, 1 μM, hypoxic environment 18 hours, FIG. 11", "value": "significantly suppress mitochondrial division"},
      {"measurement": "average length of mitochondrial fragments (suppression of mitochondrial division)", "setting": "[6]", "value": "could not suppress mitochondrial division"},
      {"measurement": "percentage of blood HbA1c", "setting": "[7]", "value": "significant decrease of HbA1c"},
      {"measurement": "survival rate", "setting": "[8]", "value": "significant increase of the survival rate"}
    ]}
  ]
}
